From ChEMBL document CHEMBL2346538, “Synthesis, cyclooxygenase inhibitory effects, and molecular modeling study of 4-aryl-5-(4-(methylsulfonyl)phenyl)-2-alkylthio and -2-alkylsulfonyl-1H-imidazole derivatives” (Bioorg Med Chem, 2013)

What follows are compounds tested against T1, Prostaglandin G/H synthase 2 (Homo sapiens, UniProt P35354) (assay: Inhibition of COX2 in human blood assessed as TxB2 level after 1 hr by enzyme immunoassay).
T1 sequence (P35354 whole entry): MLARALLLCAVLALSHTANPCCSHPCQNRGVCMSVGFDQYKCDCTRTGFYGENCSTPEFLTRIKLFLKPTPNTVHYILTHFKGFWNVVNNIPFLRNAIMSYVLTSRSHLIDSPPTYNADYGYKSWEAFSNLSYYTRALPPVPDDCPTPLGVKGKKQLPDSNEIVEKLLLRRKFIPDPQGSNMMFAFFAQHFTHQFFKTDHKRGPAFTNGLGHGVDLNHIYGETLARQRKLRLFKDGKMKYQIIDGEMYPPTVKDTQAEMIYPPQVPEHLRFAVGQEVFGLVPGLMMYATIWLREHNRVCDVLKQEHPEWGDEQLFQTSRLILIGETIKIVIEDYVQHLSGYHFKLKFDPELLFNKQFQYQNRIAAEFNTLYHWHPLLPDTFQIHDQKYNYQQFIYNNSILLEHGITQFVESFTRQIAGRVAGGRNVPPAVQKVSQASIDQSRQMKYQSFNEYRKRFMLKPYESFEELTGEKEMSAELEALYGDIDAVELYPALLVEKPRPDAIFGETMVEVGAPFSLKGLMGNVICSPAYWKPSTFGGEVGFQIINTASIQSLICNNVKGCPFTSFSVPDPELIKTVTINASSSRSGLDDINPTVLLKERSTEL
Compound `CS(=O)(=O)c1ccc(-c2[nH]c(S(C)(=O)=O)nc2-c2ccc(F)cc2)cc1` has an IC50 of 280 nM.
In the case of `CSc1nc(-c2ccc(F)cc2)c(-c2ccc(S(C)(=O)=O)cc2)[nH]1`, the IC50 is reported as 70 nM.
`CSc1nc(-c2ccc(Cl)cc2)c(-c2ccc(S(C)(=O)=O)cc2)[nH]1` gave an IC50 of 100 nM.
In the case of `CS(=O)(=O)c1ccc(-c2[nH]c(S(C)(=O)=O)nc2-c2ccccc2)cc1`, the IC50 is reported as 280 nM.
`CS(=O)(=O)c1ccc(-c2[nH]c(S(C)(=O)=O)nc2-c2ccc(Cl)cc2)cc1` gave an IC50 of 310 nM.
`CCSc1nc(-c2ccccc2)c(-c2ccc(S(C)(=O)=O)cc2)[nH]1` showed an IC50 of 50 nM.
In the case of `CCSc1nc(-c2ccc(F)cc2)c(-c2ccc(S(C)(=O)=O)cc2)[nH]1`, the IC50 is reported as 80 nM.
Work on `CCSc1nc(-c2ccc(Cl)cc2)c(-c2ccc(S(C)(=O)=O)cc2)[nH]1` yielded an IC50 of 110 nM.
For `CCS(=O)(=O)c1nc(-c2ccccc2)c(-c2ccc(S(C)(=O)=O)cc2)[nH]1`, the IC50 was 240 nM.
Compound `CCS(=O)(=O)c1nc(-c2ccc(F)cc2)c(-c2ccc(S(C)(=O)=O)cc2)[nH]1` has an IC50 of 310 nM.
In the case of `CCS(=O)(=O)c1nc(-c2ccc(Cl)cc2)c(-c2ccc(S(C)(=O)=O)cc2)[nH]1`, the IC50 is reported as 320 nM.
`CSc1nc(-c2ccccc2)c(-c2ccc(S(C)(=O)=O)cc2)[nH]1` was tested, and the IC50 was 60 nM.
